Patent US6069160A, “Heteroatom-containing benzocyclopentane-oxazolidinones” (Bayer Aktiengesellschaft, priority 1995, dated 2000)
Values after ≈ are worked out from the molar mass of the structure shown. Like-named read-outs stand apart in the source and are kept apart here.

Assays:
Assay type in all cases: cell-based
[1] = tested on: Staph. 25701; experiment: MIC by series dilution method
Protocol: (§1) The minimum inhibitory concentration (MIC) were determined by a series dilution method on Iso-Sensitest agar (Oxoid). For each test substance, a series of agar plates each comprising concentrations of the active compound decreasing by double dilution in each case was prepared. The agar plates were inoculated with a multipoint inoculator (Denley). Overnight cultures of the pathogens which had been diluted beforehand such that each inoculation point comprised about 10^4 colony-forming particles were used for the inoculation. The inoculated agar plates were incubated at 37° C. and the germ growth was read off after about 20 hours. The MIC value (μg/ml) indicates the lowest active compound concentration at which no growth was detectable with the naked eye. […]

[2] = tested on: Staph. 48N; experiment: MIC by series dilution method
Protocol: as §1

[3] = tested on: Staph. 9TV; experiment: MIC by series dilution method
Protocol: as §1

[4] = tested on: Staph. 133; experiment: MIC by series dilution method
Protocol: as §1

[5] = tested on: Psdm. Bonn; experiment: MIC by series dilution method; settings: 37° C., about 20 hours
Protocol: (§2) The minimum inhibitory concentration (MIC) were determined by a series dilution method on Iso-Sensitest agar (Oxoid). For each test substance, a series of agar plates each comprising concentrations of the active compound decreasing by double dilution in each case was prepared. The agar plates were inoculated with a multipoint inoculator (Denley). Overnight cultures of the pathogens which had been diluted beforehand such that each inoculation point comprised about 10^4 colony-forming particles were used for the inoculation. The inoculated agar plates were incubated at 37° C. and the germ growth was read off after about 20 hours. The MIC value (μg/ml) indicates the lowest active compound concentration at which no growth was detectable with the naked eye.

[6] = tested on: E. coli Neumann; experiment: MIC by series dilution method; settings: Escherichia coli
Protocol: as §2

[7] = tested on: Klebs. 57 USA; experiment: MIC by series dilution method; settings: 37° C., about 20 hours
Protocol: as §2

[8] = tested on: Mycobacterium smegmacis DSM 43277; experiment: MIC in microtiter plates (Mycobacterium); settings: DSM43277, 37° C., 3 to 5 days
Protocol: (§3) The microtiter plates were incubated at 37° C. and read off after about 20 hours (Staph) or after 3 to 5 days (Mycobacterium). The MIC value (μg/ml) indicates the lowest concentration of active substance at which no growth was detectable.

[9] = tested on: Mycobacterium smegmacis DSM 43299; experiment: MIC in microtiter plates (Mycobacterium); settings: DSM43299, 37° C., 3 to 5 days
Protocol: as §3

[10] = tested on: Mycobacterium smegmacis DSM 43078; experiment: MIC in microtiter plates (Mycobacterium); settings: DSM43078, 37° C., 3 to 5 days
Protocol: as §3

[11] = tested on: Mycobacterium smegmacis DSM 43465; experiment: MIC in microtiter plates (Mycobacterium); settings: DSM43465, 37° C., 3 to 5 days
Protocol: as §3

[12] = tested on: Mycobacterium smegmacis DSM 43464; experiment: MIC in microtiter plates (Mycobacterium); settings: DSM43464, 37° C., 3 to 5 days
Protocol: as §3

[13] = tested on: Mycobacterium smegmacis DSM 43061; experiment: MIC in microtiter plates (Mycobacterium); settings: DSM43061, 37° C., 3 to 5 days
Protocol: as §3

[14] = Staph. 25701, 37° C., about 20 hours, read-out: MIC
[15] = Staph. 48N, 37° C., about 20 hours, read-out: MIC
[16] = Staph. 9TV, 37° C., about 20 hours, read-out: MIC
[17] = Staph. 133, 37° C., about 20 hours, read-out: MIC
[18] = E. coli Neumann, 37° C., about 20 hours, read-out: MIC

CCCCCn1c(=O)oc2cc(N3C[C@H](CNC(C)=O)OC3=O)ccc21 [Example 84]
MIC [1, 14]: 1 µg/mL (≈ 2.77 µM) | MIC [2, 15]: 1 µg/mL (≈ 2.77 µM) | MIC [3, 16]: 0.5 µg/mL (≈ 1.38 µM) | MIC [4, 17]: 1 µg/mL (≈ 2.77 µM) | MIC [5]: > 64 µg/mL | MIC ([6]; 20 h): 64 µg/mL (≈ 177 µM) | MIC [7]: > 64 µg/mL

CC(=O)NC[C@H]1CN(c2ccc3c(c2)oc(=S)n3C)C(=O)O1 [Example 43]
MIC [1, 14]: 0.25 µg/mL (≈ 0.778 µM) | MIC [2, 15]: 0.125 µg/mL (≈ 0.389 µM) | MIC [3, 16]: 0.125 µg/mL (≈ 0.389 µM) | MIC [4, 17]: 0.25 µg/mL (≈ 0.778 µM) | MIC [5]: > 64 µg/mL | MIC [6, 18]: > 32 µg/mL | MIC [7]: > 64 µg/mL

CCOC(=O)Cn1c(=O)oc2cc(N3C[C@H](CNC(C)=O)OC3=O)ccc21 [Example 39]
MIC [1, 14]: 4 µg/mL (≈ 10.6 µM) | MIC [2, 15]: 4 µg/mL (≈ 10.6 µM) | MIC [3, 16]: 4 µg/mL (≈ 10.6 µM) | MIC [4, 17]: 4 µg/mL (≈ 10.6 µM) | MIC [5]: > 64 µg/mL | MIC ([6]; 20 h): > 64 µg/mL | MIC [7]: > 64 µg/mL

CCC(=O)NC[C@H]1CN(c2ccc3c(c2)sc(=O)n3C)C(=O)O1 [Example 56]
MIC [8]: 0.25 µg/mL (≈ 0.745 µM) | MIC [9]: 1 µg/mL (≈ 2.98 µM) | MIC [10]: 1 µg/mL (≈ 2.98 µM) | MIC [11]: 0.5 µg/mL (≈ 1.49 µM) | MIC [12]: 4 µg/mL (≈ 11.9 µM) | MIC [13]: 1 µg/mL (≈ 2.98 µM) | MIC [1, 14]: 0.5 µg/mL (≈ 1.49 µM) | MIC [2, 15]: 0.5 µg/mL (≈ 1.49 µM) | MIC [3, 16]: 0.25 µg/mL (≈ 0.745 µM) | MIC [4, 17]: 0.5 µg/mL (≈ 1.49 µM) | MIC [5]: > 64 µg/mL | MIC ([6]; 20 h): 64 µg/mL (≈ 191 µM) | MIC [7]: > 64 µg/mL

CCn1c(=S)sc2cc(N3C[C@H](CNC(C)=O)OC3=O)ccc21 [Example 44]
MIC [1, 14]: 0.5 µg/mL (≈ 1.42 µM) | MIC [2, 15]: 0.5 µg/mL (≈ 1.42 µM) | MIC [3, 16]: 0.5 µg/mL (≈ 1.42 µM) | MIC [4, 17]: 0.5 µg/mL (≈ 1.42 µM) | MIC [5]: > 64 µg/mL | MIC ([6]; 20 h): > 64 µg/mL | MIC [7]: > 64 µg/mL

CC(=O)NC[C@H]1CN(c2ccc3c(c2)sc(=O)n3C)C(=O)O1 [Example 18]
MIC [8]: 0.25 µg/mL (≈ 0.778 µM) | MIC [9]: 1 µg/mL (≈ 3.11 µM) | MIC [10]: 0.25 µg/mL (≈ 0.778 µM) | MIC [11]: 0.5 µg/mL (≈ 1.56 µM) | MIC [12]: 1 µg/mL (≈ 3.11 µM) | MIC [13]: 0.25 µg/mL (≈ 0.778 µM) | MIC [1, 14]: 0.25 µg/mL (≈ 0.778 µM) | MIC [2, 15]: 0.25 µg/mL (≈ 0.778 µM) | MIC [3, 16]: 0.06 µg/mL (≈ 0.187 µM) | MIC [4, 17]: 0.25 µg/mL (≈ 0.778 µM) | MIC [5]: > 64 µg/mL | MIC ([6]; 20 h): > 64 µg/mL | MIC [7]: > 64 µg/mL

Cn1c(=O)sc2cc(N3C[C@H](CNC(=O)C4CC4)OC3=O)ccc21 [Example 54]
MIC [8]: 2 µg/mL (≈ 5.76 µM) | MIC [9]: 4 µg/mL (≈ 11.5 µM) | MIC [10]: 1 µg/mL (≈ 2.88 µM) | MIC [11]: 4 µg/mL (≈ 11.5 µM) | MIC [12]: 16 µg/mL (≈ 46.1 µM) | MIC [13]: 4 µg/mL (≈ 11.5 µM)

COP(=O)(NC[C@H]1CN(c2ccc3c(c2)sc(=O)n3C)C(=O)O1)OC [Example 17]
MIC ([1]; 20 h): 8 µg/mL (≈ 20.7 µM) | MIC ([2]; 20 h): 8 µg/mL (≈ 20.7 µM) | MIC ([3]; 20 h): 8 µg/mL (≈ 20.7 µM) | MIC ([4]; 20 h): 8 µg/mL (≈ 20.7 µM) | MIC [5]: > 64 µg/mL | MIC ([6]; 20 h): > 64 µg/mL | MIC [7]: > 64 µg/mL

CC(=O)NC[C@H]1CN(c2ccc3c(c2)oc(=NC(=O)C2CC2)n3C)C(=O)O1 [Example 94]
MIC [1, 14]: 0.5 µg/mL (≈ 1.34 µM) | MIC [2, 15]: 0.5 µg/mL (≈ 1.34 µM) | MIC [3, 16]: 0.25 µg/mL (≈ 0.671 µM) | MIC [4, 17]: 0.5 µg/mL (≈ 1.34 µM) | MIC [5]: > 64 µg/mL | MIC ([6]; 20 h): 64 µg/mL (≈ 172 µM) | MIC [7]: > 64 µg/mL

CC(=O)NC[C@H]1CN(c2ccc3c(c2)oc(=O)n3C(C)C)C(=O)O1 [Example 47]
MIC [1, 14]: 0.5 µg/mL (≈ 1.5 µM) | MIC [2, 15]: 0.5 µg/mL (≈ 1.5 µM) | MIC [3, 16]: 0.25 µg/mL (≈ 0.75 µM) | MIC [4, 17]: 0.5 µg/mL (≈ 1.5 µM) | MIC [5]: > 64 µg/mL | MIC [6, 18]: 32 µg/mL (≈ 96 µM) | MIC [7]: 64 µg/mL (≈ 192 µM)

CC(=O)NC[C@H]1CN(c2ccc3c(c2)oc(=O)n3Cc2ccccc2)C(=O)O1 [Example 38]
MIC [1, 14]: 4 µg/mL (≈ 10.5 µM) | MIC [2, 15]: 4 µg/mL (≈ 10.5 µM) | MIC [3, 16]: 1 µg/mL (≈ 2.62 µM) | MIC [4, 17]: 4 µg/mL (≈ 10.5 µM) | MIC [5]: > 64 µg/mL | MIC ([6]; 20 h): > 64 µg/mL | MIC [7]: > 64 µg/mL

COC(=O)NC[C@H]1CN(c2ccc3c(c2)sc(=O)n3C)C(=O)O1 [Example 70]
MIC [8]: 0.5 µg/mL (≈ 1.48 µM) | MIC [9]: 2 µg/mL (≈ 5.93 µM) | MIC [10]: 0.125 µg/mL (≈ 0.371 µM) | MIC [11]: 1 µg/mL (≈ 2.96 µM) | MIC [12]: 8 µg/mL (≈ 23.7 µM) | MIC [13]: 0.25 µg/mL (≈ 0.741 µM) | MIC [1, 14]: 0.5 µg/mL (≈ 1.48 µM) | MIC [2, 15]: 0.5 µg/mL (≈ 1.48 µM) | MIC [3, 16]: 0.5 µg/mL (≈ 1.48 µM) | MIC [4, 17]: 0.5 µg/mL (≈ 1.48 µM) | MIC [5]: > 64 µg/mL | MIC ([6]; 20 h): > 64 µg/mL | MIC [7]: > 64 µg/mL

CCn1c(=O)sc2cc(N3C[C@H](CNC(C)=O)OC3=O)ccc21 [Example 22]
MIC [1, 14]: 1 µg/mL (≈ 2.98 µM) | MIC [2, 15]: 1 µg/mL (≈ 2.98 µM) | MIC [3, 16]: 0.5 µg/mL (≈ 1.49 µM) | MIC [4, 17]: 1 µg/mL (≈ 2.98 µM) | MIC [5]: > 64 µg/mL | MIC ([6]; 20 h): > 64 µg/mL | MIC [7]: > 64 µg/mL

CC(=O)NC[C@H]1CN(c2ccc3c(c2)oc(=O)n3C)C(=O)O1 [Example 37]
MIC [1, 14]: 1 µg/mL (≈ 3.28 µM) | MIC [2, 15]: 1 µg/mL (≈ 3.28 µM) | MIC [3, 16]: 0.5 µg/mL (≈ 1.64 µM) | MIC [4, 17]: 1 µg/mL (≈ 3.28 µM) | MIC [5]: 64 µg/mL (≈ 210 µM) | MIC [6, 18]: 16 µg/mL (≈ 52.4 µM) | MIC [7]: 64 µg/mL (≈ 210 µM)

Cn1c(=O)sc2cc(N3C[C@H](CNC(=O)C4CCC4)OC3=O)ccc21 [Example 62]
MIC [1, 14]: 1 µg/mL (≈ 2.77 µM) | MIC [2, 15]: 1 µg/mL (≈ 2.77 µM) | MIC [3, 16]: 0.5 µg/mL (≈ 1.38 µM) | MIC [4, 17]: 1 µg/mL (≈ 2.77 µM) | MIC [5]: > 64 µg/mL | MIC ([6]; 20 h): > 64 µg/mL | MIC [7]: > 64 µg/mL

CC(=O)NC[C@H]1CN(c2ccc3[nH]c(=O)oc3c2)C(=O)O1 [Example 24]
MIC [1, 14]: 16 µg/mL (≈ 54.9 µM) | MIC [2, 15]: 16 µg/mL (≈ 54.9 µM) | MIC [3, 16]: 16 µg/mL (≈ 54.9 µM) | MIC ([4]; 20 h): 8 µg/mL (≈ 27.5 µM) | MIC [5]: > 64 µg/mL | MIC ([6]; 20 h): > 64 µg/mL | MIC [7]: > 64 µg/mL
